The values that follow come from article PMC6054692, “Library screening of cell-penetrating peptide for BY-2 cells, leaves of Arabidopsis, tobacco, tomato, poplar, and rice callus” (Scientific Reports, 2018).

SMILES strings stand for the structures.

For the data set, the system named is BY-2 cells. Kind of data set: Cell penetration efficiency into BY-2 suspension culture cells (CLSM of TAMRA-labeled CPP). The conditions noted are these: negative control without CPP, 15 min, 1 h, 3 h and 6 h at 26 °C, BY-2 cells 3 days after subculture.

Experimental: To evaluate the cell penetration efficiency of the 55 CPPs into BY-2 suspension culture cells, we first optimized the CPP concentration and cell density using BP100 as a model CPP. The cell penetration efficiency of CPP into BY-2 cells was determined based on the ratio of numbers of cell with and without TAMRA signals of CPP by confocal laser scanning microscopy (CLSM) (Fig. 2). […] Thus, we used the BY-2 cells at 3 days after subculture as well as the incubation time of 3 hours for all the experiments in this study.
Suspension-cultured tobacco (Nicotiana tabacum) cv. BY-2 cells were provided by the RIKEN Bio Resource Center. […]
The penetration efficiency of CPPs into BY-2 suspension cells and young true leaves of N. benthamiana, A. thaliana, Moneymaker tomato, O. sativa Nipponbare, and poplar, and O. sativa callus was determined using confocal laser scanning microscopy (CLSM, ZeissLSM 700, Carl Zeiss, Oberkochen, Germany). The intracellular localization of TAMRA-labeled CPP was observed using excitation at 555 nm for the detection of TAMRA fluorescence. The total number of cells was counted using differential interfering contrast images. The efficiency was determined as follows: Cellpenetrationefficiency(%)=(thenumberofstainedcells)/(thenumberoftotalcells)×100 Various BY-2 cell concentrations (230 to >1000 cells/µL) of BY-2 cells were tested to determine the optimal cell concentration. […]

With `CN(C)c1ccc2c(-c3ccc(C(=O)O)cc3C(=O)[O-])c3ccc(N(C)C)cc3[o+]c2c1` [TAMRA, 5-carboxytetramethylrhodamine], the “Penetration of TAMRA alone into BY-2 cells” value is reported as “could not penetrate”.
